Calls of active or inactive are those of the source. The calls are words filed in the database; no cut-off is given here.
Test: Antiestrogenic activity in human MCF7/BUS cells assessed as inhibition of 17beta-estradiol-induced cell proliferation at 10 uM after 6 days by E-Screen test
Type: functional, cell-based

Row | Compound | Activity
1 | COc1cc(OC)c2c(c1)O/C(=C\c1ccc(OC)c(O)c1)C2=O | inactive
2 | COc1cc(O)c(CC=C(C)C)c(O)c1C(C)=O | inactive
3 | O=C1CC(c2ccc(O)c(O)c2)Oc2cc(O)cc(O)c21 (configuration not stated) | inactive
4 | COc1ccc(-c2oc3cc(O)cc(O)c3c(=O)c2O)cc1O | inactive
5 | C=C(C)[C@@H]1Cc2c(c(OC)c3occ(C)c3c2OC)O1 | inactive
6 | COc1cc(OC)c2c(c1)O/C(=C\c1ccc(OC)c(OC)c1)C2=O | inactive
7 | C=C(C)[C@@H]1Cc2c(c(OC)c(O)c(C(C)=O)c2OC)O1 | inactive

Source: ChEMBL document CHEMBL1799912, “Benzodihydrofurans from Cyperus teneriffae” (J Nat Prod, 2011)
